Experiment [1] can be described thus: Zn^2+ titration of ZIGIRs by fluorescence emission (Hill plot). The experiment is classed as binding. Here is the method: UV-Vis spectra were recorded in a 1-cm path quartz cell on a Shimadzu 2401 PC spectrometer. Fluorescence excitation and emission spectra were recorded on a Fluorolog 3 spectrometer (Jobin-Yvon Horiba, Edison, N.J.). Zinc titration was performed by adding ZIGIRs (0.5 μM final concentration) to buffered Zn^2+ solutions containing 100 mM HEPES (pH 7.4). Nitrilotriacetic acid (NTA, 10 mM) and varying concentrations of ZnSO4 (0-9 mM) were mixed to reach free Zn^2+ concentrations between 0.1 nM and 40 nM (Li et al., 2011). Zn^2+ concentrations above 40 nM were controlled by iminodiacetate (IDA, 10 mM) and varying amounts of ZnSO4 (0-9.7 mM) in 100 mM HEPES (pH 7.4; Sasaki et al., 2011). To determine Zn^2+ binding dissociation constants (Kd(Zn^2+)), the Zn^2+ titration data were fitted to the least square exponential equation (Prism 7). Fluorescence quantum yields of ZIGIRs at pH 7.5 were determined using rhodamine 6G as the reference (Φfl=0.94 in MeOH; Magde et al., 2002). An example in shown FIGS. 11A0B. To examine the pH sensitivity of ZIGIRs, the fluorescence emission spectra was recorded from pH 3-9.4 in either nominally Zn^2+-free solutions containing 5 mM iminodiacetate or in 25 μM ZnSO4 solutions. The pH was controlled with 10 mM pH buffers including chloroacetic acid (pH 3.1), acetate (pH 4.1 and 5.0), 2-morpholinoethanesulfonic acid (MES, pH 6.14), HEPES (pH 7.5) and N-cyclohexyl-2-aminoethanesulfonic acid (CHES, pH 9.4).

A short description of experiment [2]: Metal ion selectivity of fluorescence response. The experiment is classed as physicochemical. The conditions noted are these: 1 μM sensor, 10 μM TPEN; against Na^+, K^+, Ca^2+, Mg^2+, Fe^2+, Ni^2+, Co^2+, Cu^2+, Mn^2+. Here is the method: To study the metal selectivity, the fluorescence of ZIGIR-1 (1 μM) or ZIGIR-2 (1 μM) was measured in the presence of 10 μM TPEN and an excess of metal ion including 1 mM KCl, 1 mM NaCl, 1 mM CaSO4, 1 mM MgSO4, 15 μM MnSO4, 15 μM FeSO4, 15 μM NiSO4, 15 μM CoCl2, 15 μM CuSO4, 15 μM CdSO4 or 15 μM ZnSO4. The emission intensity was normalized to that of 15 μM ZnSO4 (100%).

For the next experiment, the system named is MIN-6 cells. Description: Correlation of ZIGIR-2 labeling with insulin immunofluorescence. Particulars: wide-field microscopy. The experiment is classed as cell-based, mouse. How it is done: Confocal imaging of ZIGIR-2 labeled MIN-6 cells appeared to be heterogenous, with numerous ZIGIR-2 positive puncta in some cells while few in others (FIG. 6B). The MIN-6 cell is a transformed β-cell line derived from a mouse insulinoma. […] To investigate how ZIGIR-2 staining correlates with the distribution of insulin granules, insulin immunofluorescence was performed on the same MIN-6 cells after ZIGIR-2 imaging. […] To further analyze MIN-6 cells that were differentially labeled with ZIGIR-2, and to address whether ZIGIR-2 staining correlated with other cellular organelles, MIN6 cells were separated into ZIGIR-2-High and ZIGIR-2-Low subsets based on ZIGIR-2 fluorescence intensity using fluorescence-activated cell sorting (FACS; FIG. 7E). The sorted cells were then compared by immunofluorescence using antibodies against insulin, NPC-1 (a marker protein of late endosome/lysosome; Patel et al., 1999 and Higgins et al., 1999), or GM130 (a Golgi marker protein; Nakamura et al., 1995). […]
To correlate the intensity of ZIGIR-2 labeling and cellular insulin content by imaging, MIN-6 cells were first labeled and seeded on a 35 mm MatTek glass dish with ZIGIR-2. Cells were then imaged on a wide field fluorescence microscope (Axiovert 200, Carl Zeiss) equipped with an EMCCD camera (iXon 897, Andor) through a 40× oil objective. […]

Molecules are shown by their SMILES.

Take `CN(C)c1ccc2c(-c3ccc(NCCN(CCc4ccccn4)Cc4ccccn4)cc3C(=O)[O-])c3ccc(=[N+](C)C)cc-3oc2c1` [ZIGIR-2]: the “FC (fold change in fluorescence brightness ϕfl×ε from Zn^2+-free to Zn^2+-bound state)” value in experiment [1] turned out to be 34. In addition, the results for the Kd in experiment [1] (100 mM HEPES pH 7.4) and in experiment [1] (Table 2) were 310 nM and 810 nM, respectively. Also, in experiment [1] (Table 2), the “Zn^2+ response (fold change)” value amounted to 34×. In experiment [2], the “selectivity of fluorescence response for Zn^2+” value is “selective for Zn^2+”. Further, the “Pearson's R value of cellular ZIGIR-2 intensity versus insulin immunofluorescence” value in the experiment on MIN-6 cells was determined as 0.79±0.05.

What is called Kd is the concentration at which binding is half-saturated. Lower therefore signals tighter binding.

The values above are taken from patent publication US11649228B2, “Zinc indicators for cellular imaging” (The Board of Regents of the University of Texas System, priority 2018, dated 2023).
